Patent US20190322698A1, “WATER-SOLUBLE ALLOPR[…] USE THEREOF” (JIANGSU NHWALUOKANG PHARMACEUTICAL RESEARCH AND DEVELOPMENT …, priority 2016, published 2019)

experiment: Stability test of the compounds in a 5% aqueous glucose solution; format: physicochemical; conditions: 5% glucose solution, about 0.5 mg/ml, room temperature, 0 h, HPLC
Description: Each of the compounds to be tested was weighed (1 mg), placed in a 5% glucose solution (2 ml) and formulated into a solution having a concentration of about 0.5 mg/ml. The solution stood at room temperature, and was sampled at several time points (0.5 h, 1 h, 2 h, 3 h and 5 h).

`CC(=O)C1CCC2C3CCC4CC(OC(=O)C(F)C(=O)[O-])CCC4(C)C3CCC12C.[Na+]` (stereo not drawn) [Compound 10] and `CC(=O)C1CCC2C3CCC4CC(OC(=O)C(F)CC(=O)[O-])CCC4(C)C3CCC12C.[Na+]` (stereo not drawn) [Compound 11] are the same in “Dissociation percent (%)” value: 0.02% for the first, 0.02% for the second.

In the case of `CC(=O)C1CCC2C3CCC4CC(OC(=O)C(F)CCOP(=O)([O-])[O-])CCC4(C)C3CCC12C.[Na+].[Na+]` (stereo not drawn) [Compound 16], the “Dissociation percent (%)” value is reported as 0.02%.

same assay, conditions: 5% glucose solution, about 0.5 mg/ml, room temperature, 0.5 h, HPLC

Going from `CC(=O)C1CCC2C3CCC4CC(OC(=O)C(F)C(=O)[O-])CCC4(C)C3CCC12C.[Na+]` (stereo not drawn) [Compound 10] to `CC(=O)C1CCC2C3CCC4CC(OC(=O)C(F)CC(=O)[O-])CCC4(C)C3CCC12C.[Na+]` (stereo not drawn) [Compound 11], the “Dissociation percent (%)” value falls from 0.14% to 0.11%.

With `CC(=O)C1CCC2C3CCC4CC(OC(=O)C(F)CCOP(=O)([O-])[O-])CCC4(C)C3CCC12C.[Na+].[Na+]` (stereo not drawn) [Compound 16] the “Dissociation percent (%)” value was 0.13%.

same assay, conditions: 5% glucose solution, about 0.5 mg/ml, room temperature, 1 h, HPLC

First: CC(=O)C1CCC2C3CCC4CC(OC(=O)C(F)C(=O)[O-])CCC4(C)C3CCC12C.[Na+] (stereo not drawn) [Compound 10]
Second: CC(=O)C1CCC2C3CCC4CC(OC(=O)C(F)CC(=O)[O-])CCC4(C)C3CCC12C.[Na+] (stereo not drawn) [Compound 11]
The “Dissociation percent (%)” value of the first is higher: 0.21% for the first, 0.19% for the second.

With `CC(=O)C1CCC2C3CCC4CC(OC(=O)C(F)CCOP(=O)([O-])[O-])CCC4(C)C3CCC12C.[Na+].[Na+]` (stereo not drawn) [Compound 16] the “Dissociation percent (%)” value was 0.21%.

same assay, conditions: 5% glucose solution, about 0.5 mg/ml, room temperature, 2 h, HPLC

Going from `CC(=O)C1CCC2C3CCC4CC(OC(=O)C(F)C(=O)[O-])CCC4(C)C3CCC12C.[Na+]` (stereo not drawn) [Compound 10] to `CC(=O)C1CCC2C3CCC4CC(OC(=O)C(F)CC(=O)[O-])CCC4(C)C3CCC12C.[Na+]` (stereo not drawn) [Compound 11], the “Dissociation percent (%)” value falls from 0.36% to 0.32%.

With `CC(=O)C1CCC2C3CCC4CC(OC(=O)C(F)CCOP(=O)([O-])[O-])CCC4(C)C3CCC12C.[Na+].[Na+]` (stereo not drawn) [Compound 16] the “Dissociation percent (%)” value was 0.41%.

same assay, conditions: 5% glucose solution, about 0.5 mg/ml, room temperature, 3 h, HPLC

Compared with `CC(=O)C1CCC2C3CCC4CC(OC(=O)C(F)C(=O)[O-])CCC4(C)C3CCC12C.[Na+]` (stereo not drawn) [Compound 10], `CC(=O)C1CCC2C3CCC4CC(OC(=O)C(F)CC(=O)[O-])CCC4(C)C3CCC12C.[Na+]` (stereo not drawn) [Compound 11] is lower in “Dissociation percent (%)” value: 0.51% for the first, 0.49% for the second.

In the case of `CC(=O)C1CCC2C3CCC4CC(OC(=O)C(F)CCOP(=O)([O-])[O-])CCC4(C)C3CCC12C.[Na+].[Na+]` (stereo not drawn) [Compound 16], the “Dissociation percent (%)” value is reported as 0.62%.

same assay, conditions: 5% glucose solution, about 0.5 mg/ml, room temperature, 5 h, HPLC

Going from `CC(=O)C1CCC2C3CCC4CC(OC(=O)C(F)C(=O)[O-])CCC4(C)C3CCC12C.[Na+]` (stereo not drawn) [Compound 10] to `CC(=O)C1CCC2C3CCC4CC(OC(=O)C(F)CC(=O)[O-])CCC4(C)C3CCC12C.[Na+]` (stereo not drawn) [Compound 11], the “Dissociation percent (%)” value falls from 0.86% to 0.79%.

For `CC(=O)C1CCC2C3CCC4CC(OC(=O)C(F)CCOP(=O)([O-])[O-])CCC4(C)C3CCC12C.[Na+].[Na+]` (stereo not drawn) [Compound 16], the “Dissociation percent (%)” value was 0.93%.

same assay, conditions: appearance of the about 0.5 mg/ml solution in 5% glucose, room temperature

For `CC(=O)C1CCC2C3CCC4CC(OC(=O)C(F)C(=O)[O-])CCC4(C)C3CCC12C.[Na+]` (stereo not drawn) [Compound 10], the Solution was “Clear”.
In the case of `CC(=O)C1CCC2C3CCC4CC(OC(=O)C(F)CC(=O)[O-])CCC4(C)C3CCC12C.[Na+]` (stereo not drawn) [Compound 11], the Solution is reported as “Clear”.
For `CC(=O)C1CCC2C3CCC4CC(OC(=O)C(F)CCOP(=O)([O-])[O-])CCC4(C)C3CCC12C.[Na+].[Na+]` (stereo not drawn) [Compound 16], the Solution was “Clear”.

experiment: Solubility of the compounds in water (25° C.); format: physicochemical; conditions: not given

With `CC(=O)C1CCC2C3CCC4CC(OC(=O)C(F)C(=O)[O-])CCC4(C)C3CCC12C.[Na+]` (stereo not drawn) [Compound 10] the “Solubility” value was over 400 µg/mL.
With `CC(=O)C1CCC2C3CCC4CC(OC(=O)C(F)CC(=O)[O-])CCC4(C)C3CCC12C.[Na+]` (stereo not drawn) [Compound 11] the “Solubility” value was over 400 µg/mL.
For `CC(=O)C1CCC2C3CCC4CC(OC(=O)C(F)CCOP(=O)([O-])[O-])CCC4(C)C3CCC12C.[Na+].[Na+]` (stereo not drawn) [Compound 16], the “Solubility” value was over 300 µg/mL.

experiment: Dissociation test of the compounds in whole blood of rats; format: in vitro ADME; conditions: rat whole blood, 37° C., 1 min, HPLC
Description: Each of the compounds to be tested was weighed (1 mg), placed in water (2 ml), and formulated into a solution having a concentration of about 0.5 mg/ml as a stock solution for further use. Whole blood of rats (0.45 ml) was taken and placed in a 2 ml EP tube, which was placed in a 37° C. water bath for preheating for 20 seconds. Then the stock solution of the compound (50 μL) was added quickly. After a homogeneous mixing, the EP tube was placed in a 37° C. water bath, and time counting was initiated. Acetonitrile (1 ml) was injected immediately at predetermined time points (1 min, 3 min, 5 min, 15 min). The solution was centrifuged for 5 min (15000 rpm), filtered with a 0.22 μm filtration membrane and subjected to HPLC detection, and the results were given below: […]

Compared with `CC(=O)C1CCC2C3CCC4CC(OC(=O)C(F)C(=O)[O-])CCC4(C)C3CCC12C.[Na+]` (stereo not drawn) [Compound 10], `CC(=O)C1CCC2C3CCC4CC(OC(=O)C(F)CC(=O)[O-])CCC4(C)C3CCC12C.[Na+]` (stereo not drawn) [Compound 11] is higher in “Dissociation percent (%)” value: 39.78% for the first, 40.83% for the second.

For `CC(=O)C1CCC2C3CCC4CC(OC(=O)C(F)CCOP(=O)([O-])[O-])CCC4(C)C3CCC12C.[Na+].[Na+]` (stereo not drawn) [Compound 16], the “Dissociation percent (%)” value was 35.94%.

same assay, conditions: rat whole blood, 37° C., 3 min, HPLC

Going from `CC(=O)C1CCC2C3CCC4CC(OC(=O)C(F)C(=O)[O-])CCC4(C)C3CCC12C.[Na+]` (stereo not drawn) [Compound 10] to `CC(=O)C1CCC2C3CCC4CC(OC(=O)C(F)CC(=O)[O-])CCC4(C)C3CCC12C.[Na+]` (stereo not drawn) [Compound 11], the “Dissociation percent (%)” value falls from 52.28% to 50.35%.

In the case of `CC(=O)C1CCC2C3CCC4CC(OC(=O)C(F)CCOP(=O)([O-])[O-])CCC4(C)C3CCC12C.[Na+].[Na+]` (stereo not drawn) [Compound 16], the “Dissociation percent (%)” value is reported as 47.88%.

same assay, conditions: rat whole blood, 37° C., 5 min, HPLC

Compared with `CC(=O)C1CCC2C3CCC4CC(OC(=O)C(F)C(=O)[O-])CCC4(C)C3CCC12C.[Na+]` (stereo not drawn) [Compound 10], `CC(=O)C1CCC2C3CCC4CC(OC(=O)C(F)CC(=O)[O-])CCC4(C)C3CCC12C.[Na+]` (stereo not drawn) [Compound 11] is lower in “Dissociation percent (%)” value: 72.31% for the first, 69.32% for the second.

In the case of `CC(=O)C1CCC2C3CCC4CC(OC(=O)C(F)CCOP(=O)([O-])[O-])CCC4(C)C3CCC12C.[Na+].[Na+]` (stereo not drawn) [Compound 16], the “Dissociation percent (%)” value is reported as 66.47%.

same assay, conditions: rat whole blood, 37° C., 15 min, HPLC

`CC(=O)C1CCC2C3CCC4CC(OC(=O)C(F)C(=O)[O-])CCC4(C)C3CCC12C.[Na+]` (stereo not drawn) [Compound 10] and `CC(=O)C1CCC2C3CCC4CC(OC(=O)C(F)CC(=O)[O-])CCC4(C)C3CCC12C.[Na+]` (stereo not drawn) [Compound 11] are the same in “Dissociation percent (%)” value: 100% for the first, 100% for the second.

In the case of `CC(=O)C1CCC2C3CCC4CC(OC(=O)C(F)CCOP(=O)([O-])[O-])CCC4(C)C3CCC12C.[Na+].[Na+]` (stereo not drawn) [Compound 16], the “Dissociation percent (%)” value is reported as 94.56%.
